{"source": "patent US9919053B2", "about": "“Cabazitaxel composition” (SUPRATEK PHARMA INC., priority 2012, dated 2018)", "key": {"[1]": {"experiment": "Equilibrium solubility of cabazitaxel in aqueous SBECD", "format": "physicochemical", "settings": "aqueous SBECD solution, 23 °C, aqueous with cosolvent or surfactant or cyclodextrin, thermodynamic from solid, read-out: Cabazitaxel concentration (equilibrium solubility)", "procedure": "Excess of cabazitael was mixed with aqueous SBECD solutions for 16 hours at 23° C. The resulting suspension was filtered through a 0.22 μm filter, and the clear filtrate solution was analyzed by HPLC."}, "[2]": {"experiment": "Stability of solution of cabazitaxel in aqueous SBECD (HPLC concentration over time)", "format": "physicochemical", "settings": "23° C.", "procedure": "A solution containing 2.02 mg/mL cabazitaxel in 20% aqueous SBECD was prepared by sequential dissolving SBECD in water, and cabazitaxel in the resulting solution, followed by filtration through a 0.22 μm filter. Portions of the solution was subsequently diluted with water to form three solutions having the cabazitaxel concentration listed in the Table below, respectively. The solutions were incubated at temperature 23° C. and at selected time points were analyzed using the HPLC. All solutions were stable."}}, "note": "Like-named read-outs stand apart in the source and are kept apart here.", "data": [{"smiles": "CO[C@H]1C(=O)[C@]2(C)[C@@H](OC)C[C@H]3OC[C@@]3(OC(C)=O)[C@H]2[C@H](OC(=O)c2ccccc2)[C@]2(O)C[C@H](OC(=O)[C@H](O)[C@@H](NC(=O)OC(C)(C)C)c3ccccc3)C(C)=C1C2(C)C", "note": "[cabazitaxel, (1S,2S,3R,4S,7R,9S,10S,12R,15S)-4-(Acetyloxy)-15-{[(2R,3S)-3-{[(tert-butoxy)carbonyl]amino}-2-hydroxy-3-phenylpropanoyl]oxy}-1-hydroxy-9,12-dimethoxy-10,14,17,17-tetramethyl-11-oxo-6-oxatetracyclo[11.3.1.^03,10.0^4,7]heptadec-13-ene-2-yl benzoate]", "values": [{"measurement": "solubility thermodynamic at 16 h", "setting": "[1]; aqueous SBECD 1%", "result": 270, "unit": "µg/mL"}, {"measurement": "solubility thermodynamic at 16 h", "setting": "[1]; aqueous SBECD 2%", "result": 460, "unit": "µg/mL"}, {"measurement": "solubility thermodynamic at 16 h", "setting": "[1]; aqueous SBECD 10%", "result": 990, "unit": "µg/mL"}, {"measurement": "solubility thermodynamic at 16 h", "setting": "[1]; aqueous SBECD 20%", "result": 2280, "unit": "µg/mL"}, {"measurement": "solubility thermodynamic at 16 h", "setting": "[1]; aqueous SBECD 40%", "result": 4170, "unit": "µg/mL"}, {"measurement": "Cabazitaxel concentration", "setting": "[2]; first dilution (0.098 mg/mL at 0 h) of 2.02 mg/mL in 20% SBECD, time 0 hours", "result": 0.098, "unit": "mg/mL"}, {"measurement": "Cabazitaxel concentration", "setting": "[2]; first dilution (0.098 mg/mL at 0 h), time 11 hours", "result": 0.099, "unit": "mg/mL"}, {"measurement": "Cabazitaxel concentration", "setting": "[2]; first dilution (0.098 mg/mL at 0 h), time 24.5 hours", "result": 0.099, "unit": "mg/mL"}, {"measurement": "Cabazitaxel concentration", "setting": "[2]; first dilution (0.098 mg/mL at 0 h), time 36 hours", "result": 0.098, "unit": "mg/mL"}, {"measurement": "Cabazitaxel concentration", "setting": "[2]; first dilution (0.098 mg/mL at 0 h), time 45 hours", "result": 0.098, "unit": "mg/mL"}, {"measurement": "Cabazitaxel concentration", "setting": "[2]; first dilution (0.098 mg/mL at 0 h), time 100 hours", "result": 0.097, "unit": "mg/mL"}, {"measurement": "Cabazitaxel concentration", "setting": "[2]; first dilution (0.098 mg/mL at 0 h), time 120 hours", "result": 0.097, "unit": "mg/mL"}, {"measurement": "Cabazitaxel concentration", "setting": "[2]; second dilution (0.268 mg/mL at 0 h) of 2.02 mg/mL in 20% SBECD, time 0 hours", "result": 0.268, "unit": "mg/mL"}, {"measurement": "Cabazitaxel concentration", "setting": "[2]; second dilution (0.268 mg/mL at 0 h), time 11 hours", "result": 0.268, "unit": "mg/mL"}, {"measurement": "Cabazitaxel concentration", "setting": "[2]; second dilution (0.268 mg/mL at 0 h), time 24.5 hours", "result": 0.269, "unit": "mg/mL"}, {"measurement": "Cabazitaxel concentration", "setting": "[2]; second dilution (0.268 mg/mL at 0 h), time 36 hours", "result": 0.268, "unit": "mg/mL"}, {"measurement": "Cabazitaxel concentration", "setting": "[2]; second dilution (0.268 mg/mL at 0 h), time 45 hours", "result": 0.268, "unit": "mg/mL"}, {"measurement": "Cabazitaxel concentration", "setting": "[2]; second dilution (0.268 mg/mL at 0 h), time 100 hours", "result": 0.263, "unit": "mg/mL"}, {"measurement": "Cabazitaxel concentration", "setting": "[2]; second dilution (0.268 mg/mL at 0 h), time 120 hours", "result": 0.266, "unit": "mg/mL"}, {"measurement": "Cabazitaxel concentration", "setting": "[2]; third dilution (0.510 mg/mL at 0 h) of 2.02 mg/mL in 20% SBECD, time 0 hours", "result": 0.510, "unit": "mg/mL"}, {"measurement": "Cabazitaxel concentration", "setting": "[2]; third dilution (0.510 mg/mL at 0 h), time 11 hours", "result": 0.515, "unit": "mg/mL"}, {"measurement": "Cabazitaxel concentration", "setting": "[2]; third dilution (0.510 mg/mL at 0 h), time 24.5 hours", "result": 0.518, "unit": "mg/mL"}, {"measurement": "Cabazitaxel concentration", "setting": "[2]; third dilution (0.510 mg/mL at 0 h), time 36 hours", "result": 0.512, "unit": "mg/mL"}, {"measurement": "Cabazitaxel concentration", "setting": "[2]; third dilution (0.510 mg/mL at 0 h), time 45 hours", "result": 0.517, "unit": "mg/mL"}, {"measurement": "Cabazitaxel concentration", "setting": "[2]; third dilution (0.510 mg/mL at 0 h), time 100 hours", "result": 0.512, "unit": "mg/mL"}, {"measurement": "Cabazitaxel concentration", "setting": "[2]; third dilution (0.510 mg/mL at 0 h), time 120 hours", "result": 0.518, "unit": "mg/mL"}]}]}
